For 26 compounds, IC50 results are on record in US20060079503A1, “Thiazolidinones and the use therof as polo-like kinase inhibitors” (SCHERING AKTIENGESELLSCHAFT, priority 2002, published 2006).

T1 sequence (P53350 whole entry): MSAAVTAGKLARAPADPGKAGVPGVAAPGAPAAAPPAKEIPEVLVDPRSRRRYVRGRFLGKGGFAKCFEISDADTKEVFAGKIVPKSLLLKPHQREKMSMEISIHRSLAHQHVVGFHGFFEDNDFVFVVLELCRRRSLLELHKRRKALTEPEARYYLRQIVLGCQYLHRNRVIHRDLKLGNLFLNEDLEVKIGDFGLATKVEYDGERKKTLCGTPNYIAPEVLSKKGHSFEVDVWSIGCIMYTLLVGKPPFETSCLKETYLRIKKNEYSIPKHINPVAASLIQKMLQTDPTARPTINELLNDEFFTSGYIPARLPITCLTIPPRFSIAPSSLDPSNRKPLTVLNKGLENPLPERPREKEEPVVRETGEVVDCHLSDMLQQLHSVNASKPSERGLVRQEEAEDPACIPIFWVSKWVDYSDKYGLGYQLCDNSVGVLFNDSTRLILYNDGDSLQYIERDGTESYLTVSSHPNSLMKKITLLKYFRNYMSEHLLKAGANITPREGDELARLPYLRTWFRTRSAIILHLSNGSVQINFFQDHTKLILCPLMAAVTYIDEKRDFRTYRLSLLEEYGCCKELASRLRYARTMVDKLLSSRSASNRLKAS

In one assay the test system is human MaTu breast tumor cells. Description: Proliferation assay (crystal violet staining). The assay is classed as cell-based. To be noted: 96 h, incubated for 4 days with test substances, read-out: Inhibition of the Tumor Cell Proliferation (MaTu) IC50. How it is done: Cultivated human MaTu breast tumor cells were flattened out at a density of 5000 cells/measuring point in a 96-well multititer plate in […] of the corresponding growth medium. After 24 hours, the cells of one plate (zero-point plate) were colored with crystal violet (see below), while the medium of the other plates was replaced by fresh culture medium […], to which the test substances were added in various concentrations (0 μm, as well as in the range of 0.01-30 μm; the final concentration of the solvent dimethyl sulfoxide was 0.5%). The cells were incubated for 4 days in the presence of test substances. The cell proliferation was determined by coloring the cells with crystal violet: the cells were fixed by adding 20 μl/measuring point of an 11% glutaric aldehyde solution for 15 minutes at room temperature. After three washing cycles of the fixed cells with water, the plates were dried at room temperature. The cells were colored by adding 100 μl/measuring point of a 0.1% crystal violet solution (pH was set at 3 by adding acetic acid). After three washing cycles of the colored cells with water, the plates were dried at room temperature. The dye was dissolved by adding 100 μl/measuring point of a 10% acetic acid solution. The extinction was determined by photometry at a wavelength of 595 nm. The change of cell growth, in percent, was calculated by standardization of the measured values to the extinction values of the zero-point plate (=0%) and the extinction of the untreated (0 μm) cells (=100%).
In the case of `CCOC(=O)C(C#N)=c1sc(=CNc2ccc(C(N)=O)cc2)c(=O)n1CC` (mixture of isomers) [Example 10, (E or Z)-{5-(E/Z)-[(4-Carbamoyl-phenylamino)-methylene]-3-ethyl-4-oxo-thiazolidin-2-ylidene}-cyanoacetic acid ethyl ester], the IC50 was determined as 4 µM.
As for `CCOC(=O)C(C#N)=c1sc(=CN)c(=O)n1CC` (mixture of isomers) [Example 11, (E or Z)-(5-(E/Z)-Aminomethylene-3-ethyl-4-oxo-thiazolidin-2-ylidene)-cyanoacetic acid ethyl ester], the IC50 worked out at 15 µM.
`CCn1c(=C(C#N)C(=O)O)sc(=CNc2ccccc2)c1=O` (mixture of isomers) [Example 12, (E or Z)-Cyano-(3-ethyl-4-oxo-5-(E/Z)-phenylaminomethylene-thiazolidin-2-ylidene)-acetic acid]: the IC50 came to 2 µM.

The next assay has as its target T1, Recombinant human Plk-1 (6×His) (Homo sapiens, UniProt P53350).
T1 construct: 6×His; made in house; host or cells: baculovirus-infected insect cells (Hi5)
Description: PLK enzyme assay (33P-γ-ATP incorporation into biotinylated casein, SPA beads). Type of assay: biochemical. To be noted: 10 ng PLK enzyme, 90 minutes at room temperature, 0.5 μmol of ATP, casein substrate; read-out: Inhibition of PLK-1 IC50. How it is done: Recombinant human Plk-1 (6×His) was purified from baculovirus-infected insect cells (Hi5).
10 ng of (produced in a recombinant manner and purified) PLK enzyme is incubated for 90 minutes at room temperature with biotinylated casein and 33P-γ-ATP as a substrate in a volume of 15 μl in 384-well Greiner small-volume microtiter plates (final concentrations in the buffer: 660 ng/ml of PLK; 0.7 μmol of casein, 0.5 μmol of ATP incl. 400 nCi/ml of 33P-γ-ATP; 10 mmol of MgCl2, 1 mmol of MnCl2; 0.01% NP40; 1 mmol of DTT, protease inhibitors; 0.1 mmol of Na2VO3 in 50 mmol of HEPES, pH 7.5). To complete the reaction, 5 μl of stop solution (500 μmol of ATP; 500 mmol of EDTA; 1% Triton X100; 100 mg/ml of streptavidin-coated SPA beads in PBS) is added. After the microtiter plate is sealed by film, the beads are sedimented by centrifuging (10 minutes, 1500 rpm). The incorporation of 33P-γ-ATP in casein is intended as a measurement of enzyme activity by β-counting.
Test substances are used in various concentrations (0 μmol, as well as in the range of 0.01-30 μmol). The final concentration of the solvent dimethyl sulfoxide is 1.5% in all batches.
For the compound `CCOC(=O)C(C#N)=c1sc(=CNc2ccc(C(N)=O)cc2)c(=O)n1CC` (mixture of isomers) [Example 10, (E or Z)-{5-(E/Z)-[(4-Carbamoyl-phenylamino)-methylene]-3-ethyl-4-oxo-thiazolidin-2-ylidene}-cyanoacetic acid ethyl ester], the IC50 came out at 200 nM.
On the same count and under the same terms, then `CCOC(=O)C(C#N)=c1sc(=CN)c(=O)n1CC` (mixture of isomers) [Example 11, (E or Z)-(5-(E/Z)-Aminomethylene-3-ethyl-4-oxo-thiazolidin-2-ylidene)-cyanoacetic acid ethyl ester], with 400 nM; and `CCn1c(=C(C#N)C(=O)O)sc(=CNc2ccccc2)c1=O` (mixture of isomers) [Example 12, (E or Z)-Cyano-(3-ethyl-4-oxo-5-(E/Z)-phenylaminomethylene-thiazolidin-2-ylidene)-acetic acid], with 100 nM.
With `CCn1c(=CC#N)sc(=CNc2ccccc2)c1=O` (mixture of isomers) [Example 21, (E or Z)-(3-Ethyl-4-oxo-5-(E/Z)-phenylaminomethylene-thiazolidin-2-ylidene)-acetonitrile], the IC50 amounted to 230 nM.
As for `CCOC(=O)C(C#N)=c1sc(=CNc2ccc(S(C)(=O)=O)cc2)c(=O)n1CC` [Example 22], the IC50 came to 510 nM.
On to `CCOC(=O)C(C#N)=c1sc(=CNc2cccc(C(=O)O)c2)c(=O)n1CC` [Example 24], for which the IC50 is 230 nM.
The same measure, in the same setting: then `CCOC(=O)C(C#N)=c1sc(=CNc2ccccc2C(=O)O)c(=O)n1CC` [Example 26], with 6300 nM; and `CCOC(=O)C(C#N)=c1sc(=CNc2cc(C(=O)O)ccc2O)c(=O)n1CC` [Example 28], with 2300 nM; and `CCOC(=O)C(C#N)=c1sc(=CNc2ccc(C(=O)O)cc2O)c(=O)n1CC` [Example 30], with 250 nM.
As for `CCOC(=O)C(C#N)=c1sc(=CNc2ccc(Cl)cc2C(=O)O)c(=O)n1CC` [Example 31], the IC50 worked out at 1900 nM.
For the compound `CCOC(=O)C(C#N)=c1sc(=CNc2cc(Cl)ccc2C(=O)O)c(=O)n1CC` [Example 32], the IC50 worked out at 1700 nM.
For `CCOC(=O)C(C#N)=c1sc(=CNc2ccc(Cl)c(C(=O)O)c2)c(=O)n1CC` [Example 33], the IC50 is 420 nM.
Regarding `CCOC(=O)C(C#N)=c1sc(=CNc2ccc(F)cc2C(=O)O)c(=O)n1CC` [Example 35], the IC50 came to 2800 nM.
With `CCOC(=O)C(C#N)=c1sc(=CNc2ccc(Br)cc2C(=O)O)c(=O)n1CC` [Example 36], the IC50 is 1800 nM.
As for `CCOC(=O)C(C#N)=c1sc(=CNc2cc(F)c(F)cc2C(=O)O)c(=O)n1CC` [Example 37], the IC50 turned out to be 3500 nM.
Same read-out and setting: then `CCOC(=O)C(C#N)=c1sc(=CNc2ccc(C)cc2C(=O)O)c(=O)n1CC` [Example 38], with 3000 nM; and `CCOC(=O)C(C#N)=c1sc(=CNc2cccc(C)c2C(=O)O)c(=O)n1CC` [Example 39], with 5900 nM.
On the same count and under the same terms, then `CCOC(=O)C(C#N)=c1sc(=CNc2ccc(C(=O)O)cc2C)c(=O)n1CC` [Example 40], with 1700 nM.
On to `CCOC(=O)C(C#N)=c1sc(=CNC(=O)Nc2ccccc2)c(=O)n1CC` [Example 45], for which the IC50 was found to be 680 nM.
Consider `CCOC(=O)C(C#N)=c1sc(=CNc2cccc(C(N)=O)c2)c(=O)n1CC` [Example 48], for which the IC50 was found to be 270 nM.
Turning to `CCOC(=O)C(C#N)=c1sc(=CNc2ccc(S(N)(=O)=O)cc2)c(=O)n1CC` [Example 50], the IC50 is 240 nM.
Take `CCOC(=O)C(C#N)=c1sc(=CNc2cccc(C(=O)NC)c2)c(=O)n1CC` [Example 52]: the IC50 was determined as 260 nM.
For `CCOC(=O)C(C#N)=c1sc(=CNc2cccc(S(N)(=O)=O)c2)c(=O)n1CC` [Example 53], the IC50 is 460 nM.
Turning to `CCOC(=O)C(C#N)=c1sc(=CNc2ccc(NC(C)=O)cc2)c(=O)n1CC` [Example 58], the IC50 stood at 270 nM.
For `CCOC(=O)C(C#N)=c1sc(=CNc2cccc(NC(C)=O)c2)c(=O)n1CC` [Example 59], the IC50 worked out at 180 nM.
For the compound `CCOC(=O)C(C#N)=c1sc(=CNc2cccc(CO)c2)c(=O)n1CC` [Example 60], the IC50 was 290 nM.
